Measurements reported in US20060069132A1, “Azolecarboxamide herbicides” (priority 2004, published 2006).

How the values were obtained:
[1] = tested on: barnyardgrass; experiment: Test A pre-/postemergence herbicide test; assay type: in vivo, Echinochloa crus-galli
Method in brief: (§1)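 Visual injury scores on a 0–100 scale (100 = complete control) taken about ten days post-treatment in greenhouse against untreated controls; dash means no result. Treatments: preemergence soil spray and postemergence spray to runoff on one- to two-leaf plants 2 to 10 cm tall, surfactant-containing formulation.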

[2] = tested on: large crabgrass; experiment: Test A pre-/postemergence herbicide test; assay type: in vivo, Digitaria sanguinalis
Method in brief: as §1

[3] = tested on: giant foxtail; experiment: Test A pre-/postemergence herbicide test; assay type: in vivo, Setaria faberi
Method in brief: as §1

[4] = tested on: morningglory; experiment: Test A pre-/postemergence herbicide test; assay type: in vivo, Ipomoea spp.
Method in brief: as §1

[5] = tested on: redroot pigweed; experiment: Test A pre-/postemergence herbicide test; assay type: in vivo, Amaranthus retroflexus
Method in brief: as §1

[6] = tested on: velvetleaf; experiment: Test A pre-/postemergence herbicide test; assay type: in vivo, Abutilon theophrasti
Method in brief: as §1

[7] = tested on: barnyardgrass; experiment: Test B pre-/postemergence herbicide test; assay type: in vivo, Echinochloa crus-galli
Method in brief: (§2)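 Response was scored visually 13 to 15 days after treatment against untreated greenhouse controls, 0 meaning no effect and 100 complete control. Formulations (solvent mixture plus surfactant) went onto soil after planting, onto foliage of 1- to 4-leaf plants, and onto 2-leaf plants in a flooded paddy set including rice and barnyardgrass.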

[8] = tested on: Surinam grass; experiment: Test B pre-/postemergence herbicide test; assay type: in vivo, Urochloa decumbens
Method in brief: as §2

[9] = tested on: cocklebur; experiment: Test B pre-/postemergence herbicide test; assay type: in vivo, Xanthium strumarium
Method in brief: as §2

[10] = tested on: corn; experiment: Test B pre-/postemergence herbicide test; assay type: in vivo, Zea mays
Method in brief: as §2

[11] = tested on: large crabgrass; experiment: Test B pre-/postemergence herbicide test; assay type: in vivo, Digitaria sanguinalis
Method in brief: as §2

[12] = tested on: giant foxtail; experiment: Test B pre-/postemergence herbicide test; assay type: in vivo, Setaria faberi
Method in brief: as §2

[13] = tested on: lambsquarters; experiment: Test B pre-/postemergence herbicide test; assay type: in vivo, Chenopodium album
Method in brief: as §2

[14] = tested on: morningglory; experiment: Test B pre-/postemergence herbicide test; assay type: in vivo, Ipomoea coccinea
Method in brief: as §2

[15] = tested on: pigweed; experiment: Test B pre-/postemergence herbicide test; assay type: in vivo, Amaranthus retroflexus
Method in brief: as §2

[16] = tested on: rice; experiment: Test B pre-/postemergence herbicide test; assay type: in vivo, Oryza sativa; conditions: preemergence
Method in brief: as §2

[17] = tested on: velvetleaf; experiment: Test B pre-/postemergence herbicide test; assay type: in vivo, Abutilon theophrasti
Method in brief: as §2

[18] = tested on: blackgrass; experiment: Test B postemergence herbicide test; assay type: in vivo, Alopecurus myosuroides; conditions: scale 0 (no effect) to 100 (complete control)
Method in brief: (§3)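 Visual control ratings, 0–100 versus untreated controls, taken after 13 to 15 days in the greenhouse. Blackgrass received a postemergence spray at the 1- to 4-leaf stage (2–18 cm); ducksalad, umbrella sedge and barnyardgrass were flooded-paddy treated at 2 leaves.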

[19] = tested on: wheat; experiment: Test B postemergence herbicide test; assay type: in vivo, Triticum aestivum; parameters: key to Wheat plant response rating: 0 = no effect, 100 = complete control; conditions: scale 0 (no effect) to 100 (complete control)
Method in brief: (§4)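 Plants grow to 1- to 4-leaf stage (2–18 cm) for postemergence spraying, or to 2-leaf stage for the paddy test. Formulated compound is applied. Greenhouse holding lasts 13–15 days. Response is scored visually relative to controls, 0 no effect to 100 complete control; a dash means no result.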

[20] = tested on: wild oat; experiment: Test B postemergence herbicide test; assay type: in vivo, Avena fatua; conditions: scale 0 (no effect) to 100 (complete control)
Method in brief: as §4

[21] = tested on: rice; experiment: Test B flooded paddy test; assay type: in vivo, Oryza sativa; conditions: 1000 g ai/ha, visual rating, scale 0 to 100 (0 no effect, 100 complete control), 13 to 15 days
Method in brief: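 Postemergence plants were sprayed with formulated test chemicals at 2 to 18 cm height (1- to 4-leaf stage); paddy species were grown to the 2-leaf stage. After 13 to 15 days in a greenhouse, injury was rated visually against untreated controls on a 0–100 scale (0 = no effect, 100 = complete control).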

[22] = tested on: small flower umbrella sedge; experiment: Test B flooded paddy test; assay type: in vivo, Cyperus difformis; conditions: 1000 g ai/ha, visual rating, scale 0 to 100 (0 no effect, 100 complete control), 13 to 15 days
Method in brief: as §3

[23] = tested on: ducksalad; experiment: Test B flooded paddy test; assay type: in vivo, Heteranthera limosa; conditions: 1000 g ai/ha, visual rating, scale 0 to 100 (0 no effect, 100 complete control), 13 to 15 days
Method in brief: as §3

[24] = tested on: barnyardgrass; experiment: Test B flooded paddy test; assay type: in vivo, Echinochloa crus-galli; conditions: 1000 g ai/ha, visual rating, scale 0 to 100 (0 no effect, 100 complete control), 13 to 15 days
Method in brief: as §3

[25] = Postemergence, 500 g ai/ha, 0 to 100 scale, 0 no effect, 100 complete control
[26] = Postemergence, 2000 g ai/ha, 0 to 100 scale, 0 no effect, 100 complete control
[27] = Preemergence, 500 g ai/ha, visual rating, 0 to 100 scale (0 no effect, 100 complete control)
[28] = Preemergence, 2000 g ai/ha, visual rating, 0 to 100 scale (0 no effect, 100 complete control)
[29] = 500 g ai/ha, visual rating 0-100, 0 no effect, 100 complete control, preemergence
[30] = Postemergence, 500 g ai/ha, visual rating after 13 to 15 days, scale 0 (no effect) to 100 (complete control)
[31] = postemergence, 125 g ai/ha, visual rating, scale 0 (no effect) to 100 (complete control)
[32] = preemergence, 125 g ai/ha, 0 to 100 scale, 0 is no effect, 100 is complete control
[33] = Postemergence, 500 g ai/ha, visual rating after 13 to 15 days
[34] = postemergence, 125 g ai/ha, visual rating

CCOC(=O)c1cccc(NC(=O)c2cc(C(C)(C)C)nn2CC)c1OC [Compound 97]
Barnyardgrass plant response rating [1, 25]: 5 | Plant response rating, Barnyardgrass [1, 26]: 10 | Barnyardgrass plant response rating [1, 27]: 0 | Barnyardgrass plant response rating [1, 28]: 0 | Crabgrass, Large plant response rating [2, 25]: 10 | Plant response rating, Crabgrass, Large [2, 26]: 10 | Crabgrass, Large plant response rating [2, 27]: 0 | Crabgrass, Large plant response rating [2, 28]: 0 | Foxtail, Giant plant response rating [3, 25]: 5 | Plant response rating, Foxtail, Giant [3, 26]: 10 | Foxtail, Giant plant response rating [3, 27]: 0 | Foxtail, Giant plant response rating [3, 28]: 0 | Morningglory plant response rating [4, 25]: 0 | Plant response rating, Morningglory [4, 26]: 0 | Morningglory plant response rating [4, 27]: 0 | Morningglory plant response rating [4, 28]: 0 | Pigweed plant response rating [5, 25]: 0 | Plant response rating, Pigweed [5, 26]: 25 | Pigweed plant response rating [5, 27]: 0 | Pigweed plant response rating [5, 28]: 0 | Velvetleaf plant response rating [6, 25]: 5 | Plant response rating, Velvetleaf [6, 26]: 10 | Velvetleaf plant response rating [6, 27]: 0 | Velvetleaf plant response rating [6, 28]: 0 | Plant response rating, Barnyardgrass [7, 29]: 0 | Plant response rating, Barnyardgrass [7, 30]: 0 | Barnyardgrass plant response rating [7, 31]: 0 | Plant response rating, Barnyardgrass [7, 32]: 0 | Plant response rating, Surinam Grass [8, 29]: 0 | Plant response rating, Surinam Grass [8, 30]: 0 | Surinam Grass plant response rating [8, 31]: 0 | Plant response rating, Surinam Grass [8, 32]: 0 | Plant response rating, Cocklebur [9, 29]: 0 | Plant response rating, Cocklebur [9, 30]: 70 | Cocklebur plant response rating [9, 31]: 0 | Plant response rating, Cocklebur [9, 32]: 0 | Plant response rating, Corn [10, 29]: 0 | Plant response rating, Corn [10, 30]: 0 | Corn plant response rating [10, 31]: 0 | Plant response rating, Corn [10, 32]: 0 | Plant response rating, Crabgrass, Large [11, 29]: 0 | Plant response rating, Crabgrass, Large [11, 30]: 0 | Crabgrass, Large plant response rating [11, 31]: 0 | Plant response rating, Crabgrass, Large [11, 32]: 0 | Plant response rating, Foxtail, Giant [12, 29]: 0 | Plant response rating, Foxtail, Giant [12, 30]: 0 | Foxtail, Giant plant response rating [12, 31]: 0 | Plant response rating, Foxtail, Giant [12, 32]: 0 | Plant response rating, Lambsquarters [13, 29]: 0 | Plant response rating, Lambsquarters [13, 30]: 70 | Lambsquarters plant response rating [13, 31]: 50 | Plant response rating, Lambsquarters [13, 32]: 0 | Plant response rating, Morningglory [14, 29]: 0 | Plant response rating, Morningglory [14, 30]: 0 | Morningglory plant response rating [14, 31]: 0 | Plant response rating, Morningglory [14, 32]: 0 | Plant response rating, Pigweed [15, 29]: 0 | Plant response rating, Pigweed [15, 30]: 0 | Pigweed plant response rating [15, 31]: 0 | Plant response rating, Pigweed [15, 32]: 0 | Plant response rating, Rice ([16]; 500 g ai/ha, visual rating 0-100, 0 no effect, 100 complete control): 0 | Plant response rating, Rice ([16]; 125 g ai/ha, 0 to 100 scale, 0 is no effect, 100 is complete control): 0 | Plant response rating, Velvetleaf [17, 29]: 0 | Plant response rating, Velvetleaf [17, 30]: 60 | Velvetleaf plant response rating [17, 31]: 0 | Plant response rating, Velvetleaf [17, 32]: 0 | Plant response rating, Blackgrass [18, 33]: 0 | Blackgrass plant response rating [18, 34]: 0 | Plant response rating, Wheat [19, 33]: 0 | Wheat plant response rating [19, 34]: 0 | Plant response rating, Oat, Wild [20, 33]: 0 | Oat, Wild plant response rating [20, 34]: 0 | Rice plant response rating [21]: 0 | Sedge, Umbrella plant response rating [22]: 70 | Ducksalad plant response rating [23]: 50 | Barnyardgrass plant response rating [24]: 0
